One series deals with male NMR^1 mice. The series is described as follows: Anorectic effect: consumption of condensed milk by fasted mice after administration by gavage. It counts as in vivo. As to the method:
The anorectic effect was tested on male NMR^1 mice. After withdrawal of feed for 24 hours, the test product was administered by gavage. The animals were housed singly and had free access to drinking water and, 30 minutes after administration of the product, they were offered condensed milk. The consumption of condensed milk was determined, and the general behavior of the animals was inspected, every half hour for 7 hours. The measured milk consumption was compared with that of untreated control animals.

Several values for one entry are separate records, joined by “and”; a condition that tells them apart may be missing. Equal values may be shown once.

A word on the melting point: it is the temperature of the solid-liquid transition. Consider `CN1C(=CN)SC2=C1c1ccc(Oc3ccc(Cl)cc3)cc1C2.Cl` [Example 15, [6-(4-Chlorophenoxy)-3-methyl-3,8-dihydroindeno[1,2-d]thiazol-2-ylidene]methylamine hydrochloride], for which the melting point is 250 to 252 °C and 251 °C.
Still for that read-out and setting: next, `Br.CN=c1sc2c(n1C)-c1cccc(-c3ccc(C(F)(F)F)cc3)c1C2`: 231 °C and 230 to 233 °C.
Consider `Br.c1ccc(Oc2ccc3c(c2)CC2=C3N3CCN=C3S2)cc1` [Example 24, 7-Phenoxy-4H,9H-2,3-dihydroimidazo[2,1-b]indeno[1,2-d]thiazole hydrobromide], for which, in the series on male NMR^1 mice (oral dose 50 mg/kg by gavage, compared with untreated control animals, 7 hours), the “Reduction in the cumulative milk consumption as % of the controls” value is 93%. Besides, the “cumulative milk consumption by the treated animals” value with male NMR^1 mice (oral dose 50 mg/kg by gavage, feed withdrawn 24 hours, milk offered 30 minutes after administration, determined for 7 hours, 5 animals) was 5/0.30 ml. Also, the “Remarks (general behavior / side effects of the animals)” value with male NMR^1 mice (oral dose 50 mg/kg, behavior inspected every half hour for 7 hours) is on record as “none”.
Regarding `Cl.Cn1c2c(sc1=NCC(=O)O)COc1ccc(F)cc1-2`, the melting point stood at 256 °C.
The same measure, in the same setting: the same measure for `Br.CN1C(=CN)SC2=C1c1ccc(Cl)cc1C2`: 278 °C.

These data come from US20010011096A1, “Polycyclic thiazol-2-ylidene amines, processes for their preparation and their use as medicaments” (priority 1999, published 2001).
